These results are taken from patent publication US8084649B2, “Herbicides” (Syngenta Crop Protection, inc., priority 2007, dated 2011).

Assay type in all cases: in vivo
In test [1] the test system is Alopecurus myosuroides (ALOMY). As to the kind of experiment: Pre-emergence herbicidal activity, glasshouse pot test. The settings on record: Alopecurus myosuroides, 480 h, rate 500 g/ha, evaluated after 20 days, read-out: Pre-emergence activity, ALOMY (100=total damage to plant; 0=no damage to plant). The method in brief: (§1)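 Pre-emergence application: sprayed one day after seeding into pots of sterilised standard soil. After 20 days' growth in a greenhouse, percent damage was scored visually, 0 meaning unharmed and 100 total damage.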

Test [2] relates to Avena fatua (AVEFA). Described as above. The settings on record: Avena fatua, 480 h, rate 500 g/ha, evaluated after 20 days, read-out: Pre-emergence activity, AVEFA (100=total damage to plant; 0=no damage to plant). The method in brief:
as §1

The subject of test [3] is Digitaria sanguinalis (DIGSA). The description is as above. Particulars: Digitaria sanguinalis, 480 h, rate 500 g/ha, evaluated after 20 days, read-out: Pre-emergence activity, DIGSA (100=total damage to plant; 0=no damage to plant). Put shortly:
as §1

The test system of test [4] is Echinochloa crus-galli (ECHCG). The description is as above. Particulars: Echinochloa crus-galli, 480 h, rate 500 g/ha, evaluated after 20 days, read-out: Pre-emergence activity, ECHCG (100=total damage to plant; 0=no damage to plant). The method in brief:
as §1

The test system of test [5] is Lolium perenne (LOLPE). The description is as above. The settings on record: Lolium perenne, 480 h, rate 500 g/ha, evaluated after 20 days, read-out: Pre-emergence activity, LOLPE (100=total damage to plant; 0=no damage to plant). The method in brief: as §1
Test [6] has as its system Setaria faberi (SETFA). The description is as above. Particulars: Setaria faberi, 480 h, rate 500 g/ha, evaluated after 20 days, read-out: Pre-emergence activity, SETFA (100=total damage to plant; 0=no damage to plant). The method in brief:
as §1

Test [7] deals with Alopecurus myosuroides (ALOMY). As to the kind of experiment: Post-emergence herbicidal activity, glasshouse pot test. Particulars: Alopecurus myosuroides, evaluated after 14 or 15 days, read-out: Post-emergence activity, ALOMY (100=total damage to plant; 0=no damage to plant); for pest or weed control at 125 g/ha: rate 125 g/ha; for pest or weed control at 500 g/ha: rate 500 g/ha. Put shortly: (§2)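 Post-emergence spray on 10-day-old potted plants (sterilised standard soil, controlled glasshouse conditions); spray solution from technical compound in acetone with Emulsogen EL, N-methylpyrrolidone, dipropylene glycol monomethyl ether and X-77. Rated 14–15 d later, 0 = no damage, 100 = total damage.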

Test [8] has as its system Avena fatua (AVEFA). The description is as above. Particulars: Avena fatua, evaluated after 14 or 15 days, read-out: Post-emergence activity, AVEFA (100=total damage to plant; 0=no damage to plant); for pest or weed control at 125 g/ha: rate 125 g/ha; for pest or weed control at 500 g/ha: rate 500 g/ha. The method in brief: as §2
The test system of test [9] is Digitaria sanguinalis (DIGSA). The test is described as above. Particulars: Digitaria sanguinalis, evaluated after 14 or 15 days, read-out: Post-emergence activity, DIGSA (100=total damage to plant; 0=no damage to plant); for pest or weed control at 125 g/ha: rate 125 g/ha; for pest or weed control at 500 g/ha: rate 500 g/ha. The method in brief: as §2
The subject of test [10] is Echinochloa crus-galli (ECHCG). The test is described as above. The settings on record: Echinochloa crus-galli, evaluated after 14 or 15 days, read-out: Post-emergence activity, ECHCG (100=total damage to plant; 0=no damage to plant); for pest or weed control at 125 g/ha: rate 125 g/ha; for pest or weed control at 500 g/ha: rate 500 g/ha. Put shortly:
as §2

Test [11] relates to Lolium perenne (LOLPE). Described as above. Particulars: Lolium perenne, evaluated after 14 or 15 days, read-out: Post-emergence activity, LOLPE (100=total damage to plant; 0=no damage to plant); for pest or weed control at 125 g/ha: rate 125 g/ha; for pest or weed control at 500 g/ha: rate 500 g/ha. The method in brief:
as §2

For test [12], the system named is Setaria faberi (SETFA). The test is described as above. The settings on record: Setaria faberi, evaluated after 14 or 15 days, read-out: Post-emergence activity, SETFA (100=total damage to plant; 0=no damage to plant); for pest or weed control at 125 g/ha: rate 125 g/ha; for pest or weed control at 500 g/ha: rate 500 g/ha. The method in brief:
as §2

Each structure is given as a SMILES string.

Consider `CCC[S+]([O-])C(C)CC1CC(=O)C(c2c(C)cc(C)cc2C)=C(O)C1` (stereo not drawn) [Compound T41], for which the pest or weed control at 500 g/ha was determined as 90% in test [1]; 60% in test [2]; 100% in test [3]; 80% in test [4]; 100% in [5]; 80% in test [6]. The pest or weed control at 125 g/ha came out at 90% in test [7]; 70% in test [8]; 80% in test [9]; 70% in test [10]; 80% in test [11]; 50% in [12].
Regarding `CCc1cc(CC)c(C2=C(OC(=O)C(C)(C)C)CC3(CCOCC3)CC2=O)c(CC)c1` [Compound P49], the pest or weed control at 500 g/ha in test [1] was found to be 100%; in test [2], 60%; in test [3], 100%; in test [4], 100%; in [5] it was 100%; in [6] it was 100%. Moreover, the pest or weed control at 500 g/ha was 60% in test [7]; 10% in [8]; 90% in test [9]; 90% in [10]; 50% in test [11]; 80% in test [12].
Consider `CCc1cc(C)cc(CC)c1C1=C(OC(=O)CC(C)C)CC2(CCOCC2)CC1=O` [Compound P5], for which the pest or weed control at 500 g/ha in [1], in test [2], in test [3], in test [4], in [5] and in test [6] was 100% each time. Moreover, the pest or weed control at 125 g/ha in test [7] was determined as 100%; in [8], 100%; in [9], 100%; in test [10], 100%; in test [11] it was 100%; in [12] it was 90%.
For the compound `CCc1cc(C)cc(CC)c1C1=C(O)CC2(CCS(=O)(=O)CC2)CC1=O` [Compound T53], the pest or weed control at 500 g/ha is 60% in [1]; 80% in test [2]; 100% in test [3]; 100% in [4]; 90% in test [5]; 30% in test [6]. The pest or weed control at 125 g/ha came out at 80% in test [7]; 80% in test [8]; 90% in test [9]; 100% in [10]; 70% in test [11]; 60% in test [12].
Consider `CSCCC1CC(=O)C(c2c(C)cc(C)cc2C)=C(O)C1` (stereo not drawn) [Compound T12], for which the pest or weed control at 500 g/ha is 70% in test [1]; 20% in test [2]; 0% in [3]; 30% in [4]; 40% in [5]; 0% in test [6]. Moreover, the pest or weed control at 500 g/ha was 80% in [7]; 30% in [8]; 90% in test [9]; 80% in [10]; 60% in [11]; 90% in test [12].
With `CCc1cc(C)cc(CC)c1C1=C(OC(=O)C(C)C)CC2(CCOCC2)CC1=O` [Compound P3], the pest or weed control at 500 g/ha in test [1], in test [2], in test [3], in test [4], in test [5] and in test [6] was 100% in each case. In addition, the pest or weed control at 125 g/ha in [7] stood at 100%; in test [8], 100%; in [9], 90%; in test [10] it was 100%; in test [11], 100%; in test [12], 90%.
As for `CCc1cc(C)cc(CC)c1C1=C(OC(=O)OCc2ccccc2)CC2(CCOCC2)CC1=O` [Compound P17], the pest or weed control at 500 g/ha in test [1], in [2], in test [3], in test [4], in test [5] and in [6] was 100% throughout. In addition, the pest or weed control at 125 g/ha in test [7] was found to be 90%; in test [8] it was 80%; in [9], 70%; in test [10], 70%; in test [11], 80%; in test [12], 70%.
For `CCc1cc(C)cc(CC)c1C1=C(OC(=O)C(C)(C)C)CC(CC(C)SC(C)C)CC1=O` (stereo not drawn) [Compound P60], the pest or weed control at 500 g/ha was found to be 80% in test [1]; 0% in test [2]; 100% in [3]; 90% in test [4]; 100% in test [5]; 90% in test [6]. The pest or weed control at 125 g/ha in test [7] amounted to 70%; in [8], 50%; in test [9], 60%; in [10], 70%; in test [11] it was 70%; in test [12], 60%.
In the case of `CCc1cc(C)cc(C)c1C1=C(O)CC(CC(C)SC)CC1=O` (stereo not drawn) [Compound T10], the pest or weed control at 500 g/ha was determined as 100% in [1]; 70% in [2]; 100% in [3]; 100% in test [4]; 100% in test [5]; 100% in [6]. Also, the pest or weed control at 500 g/ha in [7] turned out to be 100%; in test [8], 100%; in test [9] it was 90%; in [10] it was 90%; in test [11] it was 100%; in test [12], 90%.
As for `CCc1cc(CC)c(C2=C(O)CC3(CCOCC3)CC2=O)c(CC)c1` [Compound T2], the pest or weed control at 500 g/ha in [1] was 80%; in [2], 70%; in test [3] it was 100%; in test [4], 100%; in [5], 100%; in test [6] it was 90%. The pest or weed control at 500 g/ha in [7] was determined as 80%; in test [8] it was 80%; in [9], 100%; in test [10], 100%; in test [11], 80%; in test [12] it was 80%.
